In experiment [1] the target is MDM2 (Homo sapiens, UniProt Q00987). Briefly: Competitive fluorescence polarization assay for MDM2. Type of experiment: binding. To be noted: competitive FP assay, MDM2; for IC50: read-out: IC50 (MDM2); for Ki: read-out: Ki (MDM2).
The target of experiment [2] is T1, MDMX (Homo sapiens, UniProt O15151).
T1 sequence (O15151 1-125): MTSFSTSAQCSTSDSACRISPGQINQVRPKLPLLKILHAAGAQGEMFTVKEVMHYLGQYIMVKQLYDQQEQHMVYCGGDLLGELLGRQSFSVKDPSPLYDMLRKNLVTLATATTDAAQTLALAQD
The experiment in a line: Competitive fluorescence polarization assay for MDMX. The format is binding. The settings on record: competitive FP assay; for IC50: read-out: IC50 (MDMX); for Ki: read-out: Ki (MDMX). (In general: In fluorescence polarisation assays a small probe gives low polarisation when free and higher when bound to something large.)

Where a SMILES comes first, the peptide text is derived from it. Bridges are numbered along the chain shown (N, C = ends). [ ]: non-standard residue; d: D form. R8 = C=CCCCCCC[C@@](C)(N)C(=O)O; Cba = N[C@@H](CC1CCC1)C(=O)O; hLeu = CC(C)CC[C@H](N)C(=O)O; S5 = C=CCCC[C@](C)(N)C(=O)O; Nle = CCCC[C@H](N)C(=O)O

MDM2, sequence (Q00987 1-125): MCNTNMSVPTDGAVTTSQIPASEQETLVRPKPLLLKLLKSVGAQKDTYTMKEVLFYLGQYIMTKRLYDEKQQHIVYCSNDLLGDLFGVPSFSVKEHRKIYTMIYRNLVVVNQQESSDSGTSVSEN

Take `CCCC[C@H](NC(=O)[C@H](Cc1c[nH]c2ccccc12)NC(=O)[C@H](C)NC(=O)[C@]1(C)CCCC=CCCCCCC[C@@](C)(NC(=O)[C@H](Cc2ccccc2)NC(=O)[C@@H](NC(=O)[C@H](CCC(=O)O)NC(C)=O)[C@@H](C)O)C(=O)N[C@@H](C)C(=O)N[C@@H](Cc2ccc(O)cc2)C(=O)N[C@@H](Cc2c[nH]c3ccccc23)C(=O)N[C@@H](C)C(=O)N[C@@H](CCC(N)=O)C(=O)N[C@@H](CC2CCC2)C(=O)N1)C(=O)N[C@H](C)C(N)=O` [compound 270] (Ac-ETF[R8]AYWAQ[Cba][S5]AW[Nle][dA]-NH2; staple 4-11): the IC50 (in general, the concentration that inhibits the measured activity by half) was less than 10 nM in experiment [1] and 10 to 100 nM in experiment [2]. Moreover, the Ki – broadly, a dissociation constant, usually derived from enzyme kinetics or from competition with a known ligand – in experiment [1] was less than 10 nM; in experiment [2], 10 to 100 nM.

For `CCCC[C@H](NC(=O)[C@H](Cc1c[nH]c2ccccc12)NC(=O)[C@H](C)NC(=O)[C@]1(C)CCCC=CCCCCCC[C@@](C)(NC(=O)[C@H](Cc2ccccc2)NC(=O)[C@@H](NC(=O)[C@H](CC(C)C)NC(C)=O)[C@@H](C)O)C(=O)N[C@@H](CCC(=O)O)C(=O)N[C@@H](Cc2ccc(O)cc2)C(=O)N[C@@H](Cc2c[nH]c3ccccc23)C(=O)N[C@@H](C)C(=O)N[C@@H](CCC(N)=O)C(=O)N[C@@H](CC2CCC2)C(=O)N1)C(=O)N[C@H](C)C(N)=O` [compound 271] (Ac-LTF[R8]EYWAQ[Cba][S5]AW[Nle][dA]-NH2; staple 4-11), in experiment [1], the IC50 was less than 10 nM and the inhibitory constant (Ki) is less than 10 nM. For the same compound, in experiment [2], the IC50 was 10 to 100 nM and the Ki was less than 10 nM.

As to `CCCC[C@H](NC(=O)[C@H](Cc1c[nH]c2ccccc12)NC(=O)[C@H](C)NC(=O)[C@]1(C)CCCC=CCCCCCC[C@@](C)(NC(=O)[C@H](Cc2ccccc2)NC(=O)[C@@H](NC(=O)[C@H](CCC(=O)O)NC(C)=O)[C@@H](C)O)C(=O)N[C@@H](CCC(=O)O)C(=O)N[C@@H](Cc2ccc(O)cc2)C(=O)N[C@@H](Cc2c[nH]c3ccccc23)C(=O)N[C@@H](C)C(=O)N[C@@H](CCC(N)=O)C(=O)N[C@@H](CC2CCC2)C(=O)N1)C(=O)N[C@H](C)C(N)=O` [compound 272] (Ac-ETF[R8]EYWAQ[Cba][S5]AW[Nle][dA]-NH2; staple 4-11), in experiment [1], the IC50 is less than 10 nM and the Ki was less than 10 nM. For the same compound, in experiment [2], the IC50 lay in the range of 10 to 100 nM and the Ki is less than 10 nM.

Consider `CCCC[C@H](NC(=O)[C@H](Cc1c[nH]c2ccccc12)NC(=O)[C@H](C)NC(=O)[C@]1(C)CCCC=CCCCCCC[C@@](C)(NC(=O)[C@H](Cc2ccccc2)NC(=O)[C@@H](NC(=O)[C@H](CCC(=O)O)NC(C)=O)[C@@H](C)O)C(=O)N[C@@H](C)C(=O)N[C@@H](Cc2ccc(O)cc2)C(=O)N[C@@H](Cc2c[nH]c3ccccc23)C(=O)N[C@@H](C)C(=O)N[C@@H](CCC(N)=O)C(=O)N[C@@H](CC(C)C)C(=O)N1)C(=O)N[C@H](C)C(N)=O` [compound 276] (Ac-ETF[R8]AYWAQL[S5]AW[Nle][dA]-NH2; staple 4-11), for which, in experiment [1], the IC50 lay in the range of 10 to 100 nM and the inhibitory constant (Ki) was less than 10 nM. Besides, in experiment [2], the IC50 fell in the range of 10 to 100 nM and the Ki is less than 10 nM.

For `CCCC[C@H](NC(=O)[C@H](Cc1c[nH]c2ccccc12)NC(=O)[C@H](C)NC(=O)[C@]1(C)CCCC=CCCCCCC[C@@](C)(NC(=O)[C@H](Cc2ccccc2)NC(=O)[C@@H](NC(=O)[C@H](CC(C)C)NC(C)=O)[C@@H](C)O)C(=O)N[C@@H](CCC(=O)O)C(=O)N[C@@H](Cc2ccc(O)cc2)C(=O)N[C@@H](Cc2c[nH]c3ccccc23)C(=O)N[C@@H](C)C(=O)N[C@@H](CCC(N)=O)C(=O)N[C@@H](CC(C)C)C(=O)N1)C(=O)N[C@H](C)C(N)=O` [compound 277] (Ac-LTF[R8]EYWAQL[S5]AW[Nle][dA]-NH2; staple 4-11), in experiment [1], the IC50 lay in the range of 10 to 100 nM and the Ki was less than 10 nM. In experiment [2], the IC50 lay in the range of 10 to 100 nM and the Ki is less than 10 nM.

Turning to `CCCC[C@H](NC(=O)[C@H](Cc1c[nH]c2ccccc12)NC(=O)[C@H](C)NC(=O)[C@]1(C)CCCC=CCCCCCC[C@@](C)(NC(=O)[C@H](Cc2ccccc2)NC(=O)[C@@H](NC(=O)[C@H](CCC(=O)O)NC(C)=O)[C@@H](C)O)C(=O)N[C@@H](CCC(=O)O)C(=O)N[C@@H](Cc2ccc(O)cc2)C(=O)N[C@@H](Cc2c[nH]c3ccccc23)C(=O)N[C@@H](C)C(=O)N[C@@H](CCC(N)=O)C(=O)N[C@@H](CC(C)C)C(=O)N1)C(=O)N[C@H](C)C(N)=O` [compound 278] (Ac-ETF[R8]EYWAQL[S5]AW[Nle][dA]-NH2; staple 4-11), in experiment [1], the IC50 is 10 to 100 nM and the Ki was less than 10 nM. In experiment [2], the IC50 is 10 to 100 nM and the Ki is less than 10 nM.

Regarding `CCCC[C@H](NC(=O)[C@H](C)NC(=O)[C@H](C)NC(=O)[C@]1(C)CCCC=CCCCCCC[C@@](C)(NC(=O)[C@H](Cc2ccccc2)NC(=O)[C@@H](NC(=O)[C@H](CC(C)C)NC(C)=O)[C@@H](C)O)C(=O)N[C@@H](C)C(=O)N[C@@H](Cc2ccc(O)cc2)C(=O)N[C@@H](Cc2c[nH]c3ccccc23)C(=O)N[C@@H](CO)C(=O)N[C@@H](CCC(N)=O)C(=O)N[C@@H](CC(C)C)C(=O)N1)C(=O)N[C@@H](C)C(N)=O` [compound 306] (Ac-LTF[R8]AYWSQL[S5]AA[Nle]A-NH2; staple 4-11), the IC50 in experiment [1] was less than 10 nM; in experiment [2] it was 100 to 1000 nM. Further, the Ki in experiment [1] is less than 10 nM; in experiment [2] it was 10 to 100 nM.

On to `CCCC[C@H](NC(=O)[C@H](C)NC(=O)[C@H](C)NC(=O)[C@]1(C)CCCC=CCCCCCC[C@@](C)(NC(=O)[C@H](Cc2ccccc2)NC(=O)[C@@H](NC(=O)[C@H](CC(C)C)NC(C)=O)[C@@H](C)O)C(=O)N[C@@H](CCC(=O)O)C(=O)N[C@@H](Cc2ccc(O)cc2)C(=O)N[C@@H](Cc2c[nH]c3ccccc23)C(=O)N[C@@H](C)C(=O)N[C@@H](CCC(N)=O)C(=O)N[C@@H](CCC(C)C)C(=O)N1)C(=O)N[C@@H](C)C(N)=O` [compound 318] (Ac-LTF[R8]EYWAQ[hLeu][S5]AA[Nle]A-NH2; staple 4-11), for which, in experiment [1], the IC50 fell in the range of 10 to 100 nM and the Ki fell in the range of 10 to 100 nM. In addition, in experiment [2], the half-maximal inhibitory concentration (IC50) was in the range of 100 to 1000 nM and the Ki was 10 to 100 nM.

As for `CCCC[C@H](NC(=O)[C@H](C)NC(=O)[C@H](C)NC(=O)[C@]1(C)CCCC=CCCCCCC[C@@](C)(NC(=O)[C@H](Cc2ccccc2)NC(=O)[C@@H](NC(=O)[C@H](C)NC(=O)[C@H](C)NC(C)=O)[C@@H](C)O)C(=O)N[C@@H](C)C(=O)N[C@@H](Cc2ccc(O)cc2)C(=O)N[C@@H](Cc2c[nH]c3ccccc23)C(=O)N[C@@H](C)C(=O)N[C@@H](CCC(N)=O)C(=O)N[C@@H](CC(C)C)C(=O)N1)C(=O)N[C@@H](C)C(N)=O` [compound 319] (Ac-AATF[R8]AYWAQL[S5]AA[Nle]A-NH2; staple 5-12), in experiment [1], the IC50 was in the range of 10 to 100 nM and the Ki was in the range of 10 to 100 nM. For the same compound, in experiment [2], the IC50 lay within 100 to 1000 nM and the Ki fell in the range of 100 to 1000 nM.

In the case of `CCCC[C@H](NC(=O)[C@H](C)NC(=O)[C@H](C)NC(=O)[C@]1(C)CCCC=CCCCCCC[C@@](C)(NC(=O)[C@H](Cc2ccccc2)NC(=O)[C@@H](NC(=O)[C@H](CC(C)C)NC(C)=O)[C@@H](C)O)C(=O)N[C@@H](C)C(=O)N[C@@H](Cc2ccc(O)cc2)C(=O)N[C@@H](Cc2c[nH]c3ccccc23)C(=O)N[C@@H](C)C(=O)N[C@@H](CCC(N)=O)C(=O)N[C@@H](CC(C)C)C(=O)N1)C(=O)N[C@@H](C)C(=O)N[C@@H](C)C(N)=O` [compound 320], the IC50 in experiment [1] was 10 to 100 nM; in experiment [2] it was 100 to 1000 nM. The Ki in experiment [1] lay within 10 to 100 nM; in experiment [2] it was 100 to 1000 nM.

Values taken from US8927500B2, “Peptidomimetic macrocycles” (Aileron Therapeutics, Inc., priority 2012, dated 2015).
